Measured values as given in patent US20070049564A1 (Wyeth, priority 2005, published 2007).
In brackets after ≈: the same amount, converted by molar mass. Where two headings read alike, the source gives them in different places.

Assays:
E. coli GC 6465 = test: MIC, broth microdilution; conditions: Escherichia coli
S. aureus GC 4536 = test: MIC, broth microdilution; conditions: Staphylococcus aureus
E. coli GC 2233 = test: MIC, broth microdilution; conditions: Escherichia coli
S. pyogenes GC 4563 = test: MIC, broth microdilution; conditions: Streptococcus pyogenes
S. aureus GC 1131 = test: MIC, broth microdilution; conditions: Staphylococcus aureus
E. coli GC 2272 = test: MIC, broth microdilution; conditions: Escherichia coli
S. aureus GC 1079 = test: MIC, broth microdilution; conditions: Staphylococcus aureus
S. pneumoniae+ GC 4465 = test: MIC, broth microdilution; conditions: Streptococcus pneumoniae
S. aureus GC 6466 = test: MIC, broth microdilution; conditions: Staphylococcus aureus
E. faecium GC 2243 = test: MIC, broth microdilution; conditions: Enterococcus faecium
E. faecalis GC 2265 = test: MIC, broth microdilution; conditions: Enterococcus faecalis
E. coli = test: Range of MIC for E. coli strains; conditions: Escherichia coli
c. albicans GC 3066 = test: MIC, broth microdilution
S. aureus GC 6469 = test: MIC, broth microdilution; conditions: Staphylococcus aureus
S. epidermidis GC 4935 = test: MIC, broth microdilution; conditions: Staphylococcus epidermidis
E. faecalis GC 4555 = test: MIC, broth microdilution; conditions: Enterococcus faecalis
E. coli GC 2234 = test: MIC, broth microdilution; conditions: Escherichia coli
E. coli GC 2236 = test: MIC, broth microdilution; conditions: Escherichia coli
Staph. = test: Range of MIC for Staph. strains, including MRSA; conditions: Staphylococcus aureus
E. coli GC 1073 = test: MIC, broth microdilution; conditions: Escherichia coli

MIC (E. coli GC 6465; GC6465, read-out: MINIMAL INHIBITORY CONCENTRATION MIC, Human Serum): > 64 µg/mL
MIC (E. coli GC 6465; GC6465, read-out: MINIMAL INHIBITORY CONCENTRATION MIC, Mouse Serum): 32 µg/mL (≈ 46.7 µM)
MIC (E. coli GC 6465; GC6465, read-out: MINIMAL INHIBITORY CONCENTRATION MIC, Water): > 64 µg/mL
MIC (S. aureus GC 4536; GC4536, read-out: MINIMAL INHIBITORY CONCENTRATION MIC, Human Serum): 4 µg/mL (≈ 5.83 µM)
MIC (S. aureus GC 4536; GC4536, read-out: MINIMAL INHIBITORY CONCENTRATION MIC, Mouse Serum): 4 µg/mL (≈ 5.83 µM)
MIC (S. aureus GC 4536; GC4536, read-out: MINIMAL INHIBITORY CONCENTRATION MIC, Water): 4 µg/mL (≈ 5.83 µM)
MIC (E. coli GC 2233; GC2233, read-out: MINIMAL INHIBITORY CONCENTRATION MIC, Human Serum): > 64 µg/mL
MIC (E. coli GC 2233; GC2233, read-out: MINIMAL INHIBITORY CONCENTRATION MIC, Mouse Serum): > 64 µg/mL
MIC (E. coli GC 2233; GC2233, read-out: MINIMAL INHIBITORY CONCENTRATION MIC, Water): > 64 µg/mL
MIC (S. pyogenes GC 4563; GC4563, read-out: MINIMAL INHIBITORY CONCENTRATION MIC, Human Serum): 4 µg/mL (≈ 5.83 µM)
MIC (S. pyogenes GC 4563; GC4563, read-out: MINIMAL INHIBITORY CONCENTRATION MIC, Mouse Serum): 4 µg/mL (≈ 5.83 µM)
MIC (S. pyogenes GC 4563; GC4563, read-out: MINIMAL INHIBITORY CONCENTRATION MIC, Water): 4 µg/mL (≈ 5.83 µM)
MIC (S. aureus GC 1131; GC1131, read-out: MINIMAL INHIBITORY CONCENTRATION MIC, Human Serum): 4 µg/mL (≈ 5.83 µM)
MIC (S. aureus GC 1131; GC1131, read-out: MINIMAL INHIBITORY CONCENTRATION MIC, Mouse Serum): 4 µg/mL (≈ 5.83 µM)
MIC (S. aureus GC 1131; GC1131, read-out: MINIMAL INHIBITORY CONCENTRATION MIC, Water): 4 µg/mL (≈ 5.83 µM)
MIC (E. coli GC 2272; GC2272, read-out: MINIMAL INHIBITORY CONCENTRATION MIC, Human Serum): > 64 µg/mL
MIC (E. coli GC 2272; GC2272, read-out: MINIMAL INHIBITORY CONCENTRATION MIC, Mouse Serum): 64 µg/mL (≈ 93.3 µM)
MIC (E. coli GC 2272; GC2272, read-out: MINIMAL INHIBITORY CONCENTRATION MIC, Water): > 64 µg/mL
MIC (S. aureus GC 1079; GC1079, read-out: MINIMAL INHIBITORY CONCENTRATION MIC, Human Serum): 2 µg/mL (≈ 2.92 µM)
MIC (S. aureus GC 1079; GC1079, read-out: MINIMAL INHIBITORY CONCENTRATION MIC, Mouse Serum): 4 µg/mL (≈ 5.83 µM)
MIC (S. aureus GC 1079; GC1079, read-out: MINIMAL INHIBITORY CONCENTRATION MIC, Water): 8 µg/mL (≈ 11.7 µM)
MIC (S. pneumoniae+ GC 4465; read-out: MINIMAL INHIBITORY CONCENTRATION MIC, Human Serum): 8 µg/mL (≈ 11.7 µM)
MIC (S. pneumoniae+ GC 4465; read-out: MINIMAL INHIBITORY CONCENTRATION MIC, Mouse Serum): 4 µg/mL (≈ 5.83 µM)
MIC (S. pneumoniae+ GC 4465; read-out: MINIMAL INHIBITORY CONCENTRATION MIC, Water): 8 µg/mL (≈ 11.7 µM)
MIC (S. aureus GC 6466; GC6466, read-out: MINIMAL INHIBITORY CONCENTRATION MIC, Human Serum): 4 µg/mL (≈ 5.83 µM)
MIC (S. aureus GC 6466; GC6466, read-out: MINIMAL INHIBITORY CONCENTRATION MIC, Mouse Serum): 4 µg/mL (≈ 5.83 µM)
MIC (S. aureus GC 6466; GC6466, read-out: MINIMAL INHIBITORY CONCENTRATION MIC, Water): 8 µg/mL (≈ 11.7 µM)
MIC (E. faecium GC 2243; GC2243, read-out: MINIMAL INHIBITORY CONCENTRATION MIC, Human Serum): 8 µg/mL (≈ 11.7 µM)
MIC (E. faecium GC 2243; GC2243, read-out: MINIMAL INHIBITORY CONCENTRATION MIC, Mouse Serum): 4 µg/mL (≈ 5.83 µM)
MIC (E. faecium GC 2243; GC2243, read-out: MINIMAL INHIBITORY CONCENTRATION MIC, Water): 4 µg/mL (≈ 5.83 µM)
MIC (E. faecalis GC 2265; GC2265, read-out: MINIMAL INHIBITORY CONCENTRATION MIC, Human Serum): 4 µg/mL (≈ 5.83 µM)
MIC (E. faecalis GC 2265; GC2265, read-out: MINIMAL INHIBITORY CONCENTRATION MIC, Mouse Serum): 4 µg/mL (≈ 5.83 µM)
MIC (E. faecalis GC 2265; GC2265, read-out: MINIMAL INHIBITORY CONCENTRATION MIC, Water): 4 µg/mL (≈ 5.83 µM)
MIC (E. coli; read-out: Minimum inhibitory concentration (MIC), E. coli (Human Serum)): > 64 µg/mL
MIC (E. coli; read-out: Minimum inhibitory concentration (MIC), E. coli (water)): > 64 µg/mL
MIC (E. coli; read-out: Range of MIC, E. coli (Water)): > 64 µg/mL
MIC (c. albicans GC 3066; Candida albicans, GC3066, read-out: MINIMAL INHIBITORY CONCENTRATION MIC): > 64 µg/mL
MINIMAL INHIBITORY CONCENTRATION MIC (c. albicans GC 3066; Human Serum): >64 UG/ML
MINIMAL INHIBITORY CONCENTRATION MIC (c. albicans GC 3066; Mouse Serum): >64 UG/ML
MIC (S. aureus GC 6469; GC6469, read-out: MINIMAL INHIBITORY CONCENTRATION MIC, Human Serum): 4 µg/mL (≈ 5.83 µM)
MIC (S. aureus GC 6469; GC6469, read-out: MINIMAL INHIBITORY CONCENTRATION MIC, Mouse Serum): 4 µg/mL (≈ 5.83 µM)
MIC (S. aureus GC 6469; GC6469, read-out: MINIMAL INHIBITORY CONCENTRATION MIC, Water): 4 µg/mL (≈ 5.83 µM)
MIC (S. epidermidis GC 4935; GC4935, read-out: MINIMAL INHIBITORY CONCENTRATION MIC, Human Serum): 4 µg/mL (≈ 5.83 µM)
MIC (S. epidermidis GC 4935; GC4935, read-out: MINIMAL INHIBITORY CONCENTRATION MIC, Mouse Serum): 4 µg/mL (≈ 5.83 µM)
MIC (S. epidermidis GC 4935; GC4935, read-out: MINIMAL INHIBITORY CONCENTRATION MIC, Water): 4 µg/mL (≈ 5.83 µM)
MIC (E. faecalis GC 4555; GC4555, read-out: MINIMAL INHIBITORY CONCENTRATION MIC, Human Serum): 4 µg/mL (≈ 5.83 µM)
MIC (E. faecalis GC 4555; GC4555, read-out: MINIMAL INHIBITORY CONCENTRATION MIC, Mouse Serum): 4 µg/mL (≈ 5.83 µM)
MIC (E. faecalis GC 4555; GC4555, read-out: MINIMAL INHIBITORY CONCENTRATION MIC, Water): 4 µg/mL (≈ 5.83 µM)
MIC (E. coli GC 2234; GC2234, read-out: MINIMAL INHIBITORY CONCENTRATION MIC, Human Serum): > 64 µg/mL
MIC (E. coli GC 2234; GC2234, read-out: MINIMAL INHIBITORY CONCENTRATION MIC, Mouse Serum): > 64 µg/mL
MIC (E. coli GC 2234; GC2234, read-out: MINIMAL INHIBITORY CONCENTRATION MIC, Water): > 64 µg/mL
MIC (E. coli GC 2236; GC2236, read-out: MINIMAL INHIBITORY CONCENTRATION MIC, Human Serum): > 64 µg/mL
MIC (E. coli GC 2236; GC2236, read-out: MINIMAL INHIBITORY CONCENTRATION MIC, Mouse Serum): > 64 µg/mL
MIC (E. coli GC 2236; GC2236, read-out: MINIMAL INHIBITORY CONCENTRATION MIC, Water): > 64 µg/mL
MIC (Staph.; MRSA, read-out: Range of MIC, Staph (Mouse Serum)): 4 µg/mL (≈ 5.83 µM)
MIC (Staph.; MRSA, read-out: Range of MIC, Staph (Water)): 4 to 8 µg/mL (≈ 5.83 to 11.7 µM)
MIC (Staph.; read-out: Minimum inhibitory concentration (MIC), Staph (Human Serum)): 2 to 4 µg/mL (≈ 2.92 to 5.83 µM)
MIC (Staph.; read-out: Minimum inhibitory concentration (MIC), Staph (Water)): 4 to 8 µg/mL (≈ 5.83 to 11.7 µM)
MIC (E. coli GC 1073; GC1073, read-out: MINIMAL INHIBITORY CONCENTRATION MIC, Human Serum): > 64 µg/mL
MIC (E. coli GC 1073; GC1073, read-out: MINIMAL INHIBITORY CONCENTRATION MIC, Mouse Serum): > 64 µg/mL
MIC (E. coli GC 1073; GC1073, read-out: MINIMAL INHIBITORY CONCENTRATION MIC, Water): > 64 µg/mL
Compound: CC(C)COC(=O)N(CC(=O)Nc1cc(N(C)C)c2c(c1O)C(=O)C1=C(O)[C@]3(O)C(=O)C(C(N)=O)=C(O)[C@@H](N(C)C)[C@@H]3C[C@@H]1C2)C(C)(C)C [Example 59, isobutyl 2-{[(5aR,6aS,7S,10aS)-9-(aminocarbonyl)-4,7-bis(dimethylamino)-1,8,10a,11-tetrahydroxy-10,12-dioxo-5,5a,6,6a,7,10,10a,12-octahydrotetracen-2-yl]amino}-2-oxoethyl(tert-butyl)carbamate]
